Experimental data taken from doi:10.1101/2025.02.11.637513v1 (bioRxiv, 2025).

Experiments:
Test in all cases: tetrapeptide-ACC substrate cleavage kinetics
Type in all cases: biochemical
human caspase-9 = target: T1, human caspase-9 (Homo sapiens, UniProt P55211); conditions: Ac-P4-P3-P2-Asp-ACC substrate, 0.05-500 μM, 20-150 nM enzyme, 37°C, triplicate
T1 sequence (P55211 1-315 limits assumed): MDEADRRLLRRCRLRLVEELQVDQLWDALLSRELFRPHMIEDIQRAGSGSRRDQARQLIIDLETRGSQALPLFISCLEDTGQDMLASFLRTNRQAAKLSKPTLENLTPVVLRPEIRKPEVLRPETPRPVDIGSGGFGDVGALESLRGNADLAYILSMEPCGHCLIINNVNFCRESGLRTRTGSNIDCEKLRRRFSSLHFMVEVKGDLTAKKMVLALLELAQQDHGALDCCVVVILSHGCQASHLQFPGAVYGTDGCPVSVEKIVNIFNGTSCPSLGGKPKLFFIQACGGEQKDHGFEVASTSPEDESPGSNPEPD
T1 sequence (P55211 331-416 limits assumed): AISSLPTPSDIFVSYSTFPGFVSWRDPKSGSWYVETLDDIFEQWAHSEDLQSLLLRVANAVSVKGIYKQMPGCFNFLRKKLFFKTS

human caspase-7 = target: T2, human caspase-7 (Homo sapiens, UniProt P55210); conditions: Ac-P4-P3-P2-Asp-ACC substrate, 0.05-500 μM, 40-400 nM enzyme, 37°C, triplicate
T2 sequence (P55210 24-198 limits assumed): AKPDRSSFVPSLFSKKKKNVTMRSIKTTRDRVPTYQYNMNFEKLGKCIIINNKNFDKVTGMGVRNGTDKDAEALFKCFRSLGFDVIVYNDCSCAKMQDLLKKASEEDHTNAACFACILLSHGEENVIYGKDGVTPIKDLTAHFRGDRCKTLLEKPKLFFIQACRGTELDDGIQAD
T2 sequence (P55210 207-303 limits assumed): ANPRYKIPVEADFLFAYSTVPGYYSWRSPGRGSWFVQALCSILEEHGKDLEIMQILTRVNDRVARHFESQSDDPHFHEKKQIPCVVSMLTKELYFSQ

human caspase-1 = target: T3, human caspase-1 (Homo sapiens, UniProt P29466); conditions: Ac-P4-P3-P2-Asp-ACC substrate, 0.05-500 μM, 2-15 nM enzyme, 37°C, triplicate
T3 sequence (P29466 120-297 limits assumed): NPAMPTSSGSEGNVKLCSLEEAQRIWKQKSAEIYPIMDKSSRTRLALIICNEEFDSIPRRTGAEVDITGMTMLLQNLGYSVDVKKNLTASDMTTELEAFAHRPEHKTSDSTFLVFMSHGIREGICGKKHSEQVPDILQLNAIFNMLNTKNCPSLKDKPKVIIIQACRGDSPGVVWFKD
T3 sequence (P29466 317-404 limits assumed): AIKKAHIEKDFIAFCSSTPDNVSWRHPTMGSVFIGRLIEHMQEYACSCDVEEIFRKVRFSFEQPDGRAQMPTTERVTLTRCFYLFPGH

human caspase-5 = target: T4, human caspase-5 (Homo sapiens, UniProt P51878); conditions: Ac-P4-P3-P2-Asp-ACC substrate, 0.05-500 μM, 20-250 nM enzyme, 37°C, triplicate
T4 sequence (P51878 137-327 limits assumed): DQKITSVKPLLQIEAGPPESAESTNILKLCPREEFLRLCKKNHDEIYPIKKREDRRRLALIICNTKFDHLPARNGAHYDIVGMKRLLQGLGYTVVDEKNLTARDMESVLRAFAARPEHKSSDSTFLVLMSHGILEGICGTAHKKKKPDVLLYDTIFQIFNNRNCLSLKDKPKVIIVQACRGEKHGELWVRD
T4 sequence (P51878 347-434 limits assumed): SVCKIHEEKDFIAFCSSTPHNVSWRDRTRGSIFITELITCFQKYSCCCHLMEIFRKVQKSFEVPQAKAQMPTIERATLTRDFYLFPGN

human caspase-8 = human caspase-8 (Homo sapiens, UniProt Q14790); conditions: Ac-P4-P3-P2-Asp-ACC substrate, 0.05-500 μM, 6-42 nM enzyme, 37°C, triplicate
human caspase-4 = target: T5, human caspase-4 (Homo sapiens, UniProt P49662); conditions: Ac-P4-P3-P2-Asp-ACC substrate, 0.05-500 μM, 35-200 nM enzyme, 37°C, triplicate
T5 sequence (P49662 81-270 limits assumed): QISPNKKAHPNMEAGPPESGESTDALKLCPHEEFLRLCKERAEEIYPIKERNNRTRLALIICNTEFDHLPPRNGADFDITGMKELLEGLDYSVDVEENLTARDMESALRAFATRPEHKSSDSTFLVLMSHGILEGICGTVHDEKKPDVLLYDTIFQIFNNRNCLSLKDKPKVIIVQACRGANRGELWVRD
T5 sequence (P49662 290-377 limits assumed): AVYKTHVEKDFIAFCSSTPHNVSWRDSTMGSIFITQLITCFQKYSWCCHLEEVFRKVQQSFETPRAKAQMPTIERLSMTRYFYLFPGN

human caspase-3 = target: T6, human caspase-3 (Homo sapiens, UniProt P42574); conditions: Ac-P4-P3-P2-Asp-ACC substrate, 0.05-500 μM, 3-35 nM enzyme, 37°C, triplicate
T6 sequence (P42574 29-175 limits assumed): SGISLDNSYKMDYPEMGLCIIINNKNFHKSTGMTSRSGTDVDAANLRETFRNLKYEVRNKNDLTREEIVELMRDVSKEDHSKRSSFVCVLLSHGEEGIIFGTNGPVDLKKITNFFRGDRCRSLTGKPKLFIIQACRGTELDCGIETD
T6 sequence (P42574 176-277 limits assumed): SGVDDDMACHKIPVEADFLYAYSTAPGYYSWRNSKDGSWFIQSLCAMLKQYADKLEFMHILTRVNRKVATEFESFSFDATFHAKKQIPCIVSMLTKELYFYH

human caspase-8, sequence (Q14790 217-374 limits assumed): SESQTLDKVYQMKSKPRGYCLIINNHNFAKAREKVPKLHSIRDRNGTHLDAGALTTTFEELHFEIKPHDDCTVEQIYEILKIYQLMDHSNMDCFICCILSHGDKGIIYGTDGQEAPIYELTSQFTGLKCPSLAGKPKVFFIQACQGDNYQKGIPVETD
human caspase-8, sequence (Q14790 385-479 limits assumed): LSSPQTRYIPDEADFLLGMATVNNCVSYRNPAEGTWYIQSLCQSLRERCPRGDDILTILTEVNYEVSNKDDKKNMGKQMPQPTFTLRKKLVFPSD

Row | Substance | kcat/KM caspase-9 (human caspase-9) | kcat/KM caspase-7 (human caspase-7) | kcat/KM caspase-1 (human caspase-1) | kcat/KM caspase-5 (human caspase-5) | kcat/KM caspase-8 (human caspase-8) | kcat/KM caspase-4 (human caspase-4) | kcat/KM caspase-3 (human caspase-3)
1 | Asp-Glu-Val-Asp | 280 M⁻¹ s⁻¹ | 85 000 M^-1s^-1 | 280 M⁻¹ s⁻¹ | 180 M⁻¹ s⁻¹ | 73 200 M^-1s^-1 | 260 M⁻¹ s⁻¹ | 
2 | Glu(Ochx)-Bip-His(Bzl)-Asp | 40 M⁻¹ s⁻¹ | 20 M⁻¹ s⁻¹ | < 10 M⁻¹ s⁻¹ | < 10 M⁻¹ s⁻¹ | 110 M⁻¹ s⁻¹ | < 10 M⁻¹ s⁻¹ | < 10 M⁻¹ s⁻¹
3 | Ile-Glu-Thr-Asp | 2 300 M^-1s^-1 | 3 400 M^-1s^-1 | 1 430 M^-1s^-1 | 2 850 M^-1s^-1 | 95 400 M^-1s^-1 | 1 010 M^-1s^-1 | 21 200 M^-1s^-1
4 | Leu-Glu-His-Asp | 12 700 M^-1s^-1 | 730 M⁻¹ s⁻¹ | 97 500 M^-1s^-1 | 21 500 M^-1s^-1 | 186 000 M^-1s^-1 | 8 950 M^-1s^-1 | 12 600 M^-1s^-1
5 | Leu-Glu-Ser-Asp | 3550 M⁻¹ s⁻¹ | 20 M⁻¹ s⁻¹ | 20 000 M^-1s^-1 | 13500 M⁻¹ s⁻¹ | 19 200 M^-1s^-1 | 3 390 M^-1s^-1 | 950 M⁻¹ s⁻¹
6 | Phe(2Cl)-Glu-Pip-Asp | 2 300 M^-1s^-1 | 10 730 M^-1s^-1 |  | 1 830 M^-1s^-1 | 11 430 M^-1s^-1 | 9 760 M^-1s^-1 | 103 000 M^-1s^-1
7 | Phe-Glu-Ala-Asp | 530 M⁻¹ s⁻¹ | 180 M⁻¹ s⁻¹ | 57 100 M^-1s^-1 | 6 720 M^-1s^-1 | 3 890 M^-1s^-1 | 870 M⁻¹ s⁻¹ | 1 550 M^-1s^-1
8 | Phe-Leu-Thr-Asp | 460 M⁻¹ s⁻¹ | 450 M⁻¹ s⁻¹ | 50 000 M^-1s^-1 | 1 190 M^-1s^-1 | 3 050 M^-1s^-1 | 450 M⁻¹ s⁻¹ | 3 490 M^-1s^-1
9 | Pro-Bip-His(Bzl)-Asp | 6 990 M^-1s^-1 | 40 M⁻¹ s⁻¹ | 13 800 M^-1s^-1 | 310 M⁻¹ s⁻¹ | 2 750 M^-1s^-1 | 590 M⁻¹ s⁻¹ | 1 260 M^-1s^-1
10 | Pro-Met-His-Asp | 13 000 M^-1s^-1 | 100 M⁻¹ s⁻¹ | 13 200 M^-1s^-1 | 130 M⁻¹ s⁻¹ | 3 570 M^-1s^-1 | 460 M⁻¹ s⁻¹ | 3 160 M^-1s^-1
11 | Pro-Tyr-His-Asp | 11 080 M^-1s^-1 | 90 M⁻¹ s⁻¹ | 10 900 M^-1s^-1 | 1 110 M^-1s^-1 | 4 490 M^-1s^-1 | 330 M⁻¹ s⁻¹ | 2 110 M^-1s^-1
12 | Thr-Trp-His-Asp | 4 810 M^-1s^-1 | 710 M⁻¹ s⁻¹ | 4 500 M^-1s^-1 | 600 M⁻¹ s⁻¹ | 1 100 M^-1s^-1 | 450 M⁻¹ s⁻¹ | 26 990 M^-1s^-1
13 | Tle-Bpa-His(Bzl)-Asp | 4 210 M^-1s^-1 | 100 M⁻¹ s⁻¹ | 25 300 M^-1s^-1 | 2 650 M^-1s^-1 | 6 400 M^-1s^-1 | 4 390 M^-1s^-1 | 23 360 M^-1s^-1
14 | Tle-hGlu-Thr(Bzl)-Asp | 7 820 M^-1s^-1 | 17 430 M^-1s^-1 | 12 400 M^-1s^-1 | 5 750 M^-1s^-1 | 125 800 M^-1s^-1 | 2 130 M^-1s^-1 | 179 800 M^-1s^-1
15 | Trp(Me)-Dab-Pip-Asp | 120 M⁻¹ s⁻¹ | 20 M⁻¹ s⁻¹ | 176 200 M^-1s^-1 | 3 930 M^-1s^-1 | 150 M⁻¹ s⁻¹ | 4 340 M^-1s^-1 | 740 M⁻¹ s⁻¹
16 | Trp(Me)-Glu-His(Bzl)-Asp | 6 670 M^-1s^-1 | 280 M⁻¹ s⁻¹ | 623 800 M^-1s^-1 | 20 140 M^-1s^-1 | 7 620 M^-1s^-1 | 15 800 M^-1s^-1 | 6 300 M^-1s^-1
17 | Trp-Gln-Pro-Asp | 190 M⁻¹ s⁻¹ | 70 M⁻¹ s⁻¹ | 124 300 M^-1s^-1 | 5 420 M^-1s^-1 | 2 480 M^-1s^-1 | 3 470 M^-1s^-1 | 1 410 M^-1s^-1
18 | Trp-Gln-Val-Asp | 220 M⁻¹ s⁻¹ | 100 M⁻¹ s⁻¹ | 124 800 M^-1s^-1 | 5 100 M^-1s^-1 | 3 870 M^-1s^-1 | 4 300 M^-1s^-1 | 12 140 M^-1s^-1
19 | Tyr-Gln-2Aoc-Asp | 310 M⁻¹ s⁻¹ | 190 M⁻¹ s⁻¹ |  | 2 860 M^-1s^-1 | 4 970 M^-1s^-1 | 1 100 M^-1s^-1 | 2 580 M^-1s^-1
20 | Val-Tyr(2,6Cl2Bzl)-His-Asp | 480 M⁻¹ s⁻¹ | 80 M⁻¹ s⁻¹ | < 10 M⁻¹ s⁻¹ |  | 750 M⁻¹ s⁻¹ | 100 M⁻¹ s⁻¹ | 3 400 M^-1s^-1
